Patent publication US6387913B1, “Method of treating airway diseases with combined administration of A2B and A3 adenosine receptor antagonists” (priority 2000, dated 2002)

What was measured:
Assay type in all cases: in vivo
[1] = target: T1, A1 adenosine receptor (Mus musculus, UniProt Q60612); assay: Effect of A1 antagonist on dose-responsiveness to CPA (Penh) in a mouse model of asthma; conditions: DPCPX 10^-4 M nebulized 3 minutes, CPA dose response 15 minutes later; control and sensitized mice
T1 construct: from tissue; host or cells: live mouse (airways/lung), control and sensitized animals
T1 sequence (Q60612 1-326): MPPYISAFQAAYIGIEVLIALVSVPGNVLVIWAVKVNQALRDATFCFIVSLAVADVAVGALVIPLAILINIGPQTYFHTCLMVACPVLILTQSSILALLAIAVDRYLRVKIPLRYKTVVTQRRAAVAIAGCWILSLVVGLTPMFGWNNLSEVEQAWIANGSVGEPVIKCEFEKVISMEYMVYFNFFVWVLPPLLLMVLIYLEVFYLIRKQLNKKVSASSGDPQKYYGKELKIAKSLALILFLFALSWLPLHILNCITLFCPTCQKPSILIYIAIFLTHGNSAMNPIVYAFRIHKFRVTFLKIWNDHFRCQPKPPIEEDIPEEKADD
Procedure: FIG. 1 illustrates the effect of DPCPX (10^−4 M) on dose-responsiveness to CPA (micrograms per milliliter—ug/ml) in a mouse model of asthma. Control (Con)=dotted line, sensitized (Sen)=broken line, Con+DPCPX=solid line, and Sen+DPCPX=dashed line. Penh=percentage of saline in all Figures.
FIG. 1 illustrates the effect of DPCPX (10^−4 M) on dose-responsiveness to CPA in a mouse model of asthma. The animals were nebulized with DPCPX […] for 3 minutes and 15 minutes later the dose response to CPA was performed. n=8 for each group. CPA is an A1 adenosine receptor agonist; DPCPX is an A1 adenosine receptor antagonist.

[2] = target: T2, A2A adenosine receptor (Mus musculus, UniProt Q60613); assay: Effect of A2A antagonist on dose-responsiveness to CGS-21680 (Penh) in a mouse model of asthma; conditions: DMPX 10^-4 M nebulized 3 minutes, agonist dose response 15 minutes later; control and sensitized mice
T2 construct: from tissue; host or cells: live mouse (airways/lung), control and sensitized animals
T2 sequence (Q60613 whole entry): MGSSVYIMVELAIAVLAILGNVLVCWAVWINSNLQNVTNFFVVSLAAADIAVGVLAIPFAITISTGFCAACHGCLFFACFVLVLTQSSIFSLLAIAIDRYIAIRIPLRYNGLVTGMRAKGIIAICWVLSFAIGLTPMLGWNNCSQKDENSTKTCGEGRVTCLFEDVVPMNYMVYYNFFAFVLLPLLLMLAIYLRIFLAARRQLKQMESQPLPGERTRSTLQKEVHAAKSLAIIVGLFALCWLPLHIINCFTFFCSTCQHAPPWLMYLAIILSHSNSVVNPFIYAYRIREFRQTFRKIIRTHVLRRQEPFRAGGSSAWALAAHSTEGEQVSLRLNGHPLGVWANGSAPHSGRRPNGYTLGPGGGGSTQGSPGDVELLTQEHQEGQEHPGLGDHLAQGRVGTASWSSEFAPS
Procedure: FIG. 2 illustrates the effect of DMPX (10^−4 M) on dose-responsiveness to […] (ug/ml). Con=solid line, Sen=dashed line, Con+DMPX=broken line, and Sen+DMPX=dotted line.
FIG. 2 illustrates the effect of DMPX (10^−4 M) on dose-responsiveness to […]. The animals were nebulized with DMPX (10^−4 M) for 3 minutes and 15 minutes later the dose response to CGS-21680 was performed. n=8 for each group. CGS-21680 is an A2A adenosine receptor agonist; DMPX is an A2A adenosine receptor antagonist.

[3] = target: T3, A3 adenosine receptor (Mus musculus, UniProt Q61618); assay: Effect of MRS1220 on dose-responsiveness to IB-CL-MECA (bronchospasm) in a mouse model of asthma; conditions: MRS1220 10^-6 M; control and sensitized mice
T3 construct: from tissue; host or cells: live mouse (airways/lung), control and sensitized animals
T3 sequence (Q61618 1-319): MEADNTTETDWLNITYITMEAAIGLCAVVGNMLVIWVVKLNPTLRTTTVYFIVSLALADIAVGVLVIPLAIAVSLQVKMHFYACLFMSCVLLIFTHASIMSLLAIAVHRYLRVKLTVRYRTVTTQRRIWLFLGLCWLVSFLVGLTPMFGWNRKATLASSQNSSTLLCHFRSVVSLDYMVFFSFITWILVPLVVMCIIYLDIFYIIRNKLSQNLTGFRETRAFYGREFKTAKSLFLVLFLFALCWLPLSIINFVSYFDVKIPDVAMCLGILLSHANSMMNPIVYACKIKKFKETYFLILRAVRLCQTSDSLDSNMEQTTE
Text: Con=solid line, Sen=dotted line, Con+MRS=broken line, and Sen+MRS=dashed line.
Therefore, the combination of A3 and A2B antagonists appear better at blocking the adenosine-induced bronchospasm in a mouse model of asthma.

[4] = target: T4, A2B adenosine receptor (Mus musculus, UniProt Q60614); assay: Effect of enprofylline on dose-responsiveness to NECA (Penh) in a mouse model of asthma; conditions: enprofylline 12 mg/ml nebulized, NECA dose-response 15 minutes later; control and sensitized mice
T4 construct: from tissue; host or cells: live mouse (airways/lung), control and sensitized animals
T4 sequence (Q60614 1-332): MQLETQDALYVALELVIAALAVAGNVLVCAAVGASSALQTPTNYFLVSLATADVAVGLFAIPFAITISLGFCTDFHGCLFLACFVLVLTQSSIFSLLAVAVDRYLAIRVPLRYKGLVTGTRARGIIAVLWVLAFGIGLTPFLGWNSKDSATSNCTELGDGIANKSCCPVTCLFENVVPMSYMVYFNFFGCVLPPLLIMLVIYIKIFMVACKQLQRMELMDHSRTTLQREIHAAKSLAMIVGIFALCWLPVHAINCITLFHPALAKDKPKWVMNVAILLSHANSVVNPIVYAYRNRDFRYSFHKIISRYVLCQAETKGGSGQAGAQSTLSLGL
Procedure: FIG. 3 illustrates the effect of enprofylline (enp; 12 mg/ml) on dose-responsiveness to 5′-(N-ethyl)carboxamidoadenosine (NECA, in ug/ml). Con=dotted line, Sen=dashed line, Con+enp=solid line, and Sen+enp=broken line.
FIG. 3 illustrates the effect of enprofylline (12 mg/ml) on dose-responsiveness to NECA. The animals were nebulized with enprofylline (12 mg/ml) for 1 minutes and 15 minutes later the dose-response to […] was performed. * p<0.05 compared to Sen+Enp group. # p<0.05 compared to control group. n=10 for each group. NECA is a non-selective adenosine receptor agonist; enprofylline is an A2B adenosine receptor antagonist.

CCCn1c(=O)c2[nH]c(C3CCCC3)nc2n(CCC)c1=O [DPCPX]
effect on dose-responsiveness to CPA (Penh) [1]: no A1 adenosine receptor involvement

C#CCn1c(=O)c2c(ncn2C)n(C)c1=O [DMPX]
effect on dose-responsiveness to CGS-21680 (Penh) [2]: no A2A adenosine receptor involvement

O=C(Cc1ccccc1)Nc1nc2ccc(Cl)cc2c2nc(-c3ccco3)nn12 [MRS1220]
block of the bronchospasm produced by IB-CL-MECA [3]: did not completely block the bronchospasm

CCCn1c(=O)[nH]c(=O)c2[nH]cnc21 [enprofylline]
block of the response to NECA (Penh) [4]: did not totally block the response
